Experimental data taken from ChEMBL document CHEMBL6153140, “Pestones A and B from a Fungus Pestalotiopsis sp. Bound to Mutant p53 and Changed Its Conformation” (J Nat Prod, 2025).
The source made the active and inactive calls. No cut-off for these calls is given here.

Legend:
[1] = Cytotoxicity against human SAOS-2 cells harboring p53 […] mutant incubated for 3 days by MTT assay; format: functional, cell-based; details: SAOS-2, 72 h
[2] = Induction of apoptosis in human SAOS-2 cells harboring p53 […] mutant assessed as viable cells at 4 uM incubated for 24 hrs by Annexin V-FITC/PI staining based flow cytometric analysis (reference value: 94.3%); format: functional; details: read-out: Activity
[3] = test system: HuCCT-1; test: Antitumor activity against human HuCCT-1 cells harboring p53 […] mutant xenografted in male BALB/c Slc-nu/nu mouse model assessed as reduction in tumor volume administered IT(Intratumoral) every other day and measured on day 13 (reference value: 56 to 98 mm3); format: functional; details: time 13 day
[4] = test system: SAOS-2; test: Effect on conformation of p53 […] mutant in human SAOS-2 cells at 2 uM incubated for 6 hrs by Hoechst 33342 staining based immunofluorescence analysis; format: functional, cell-based
[5] = Induction of apoptosis in human SAOS-2 cells harboring p53 […] mutant assessed as late apoptotic cells at 4 uM incubated for 24 hrs by Annexin V-FITC/PI staining based flow cytometric analysis (reference value: 1.2%); format: functional
[6] = Induction of apoptosis in human SAOS-2 cells harboring p53 […] mutant assessed as early apoptotic cells at 4 uM incubated for 24 hrs by Annexin V-FITC/PI staining based flow cytometric analysis (reference value: 4.1%); format: functional
[7] = Induction of apoptosis in human SAOS-2 cells harboring p53 […] mutant assessed as necrotic cells at 4 uM incubated for 24 hrs by Annexin V-FITC/PI staining based flow cytometric analysis (reference value: 0.4%); format: functional
[8] = Induction of apoptosis in human SAOS-2 cells harboring p53 […] mutant assessed as fold increase in early apoptotic cells at 4 uM incubated for 24 hrs by Annexin V-FITC/PI staining based flow cytometric analysis; format: functional
[9] = test system: SAOS-2; test: Binding affinity to p53 […] mutant in human SAOS-2 cells assessed as thermal stabilization at 5 uM at 40 to 43 degreeC incubated for 1 hr by CETSA based Western blot analysis; format: cell-based
[10] = Toxicity in male BALB/c Slc-nu/nu mouse assessed as effect on body weight loss administered IT(Intratumoral) every other day and measured after 13 days; details: in vivo, 312 h, time 13 day
[11] = Induction of apoptosis in human SAOS-2 cells harboring p53 […] mutant assessed as fold increase in late apoptotic cells at 4 uM incubated for 24 hrs by Annexin V-FITC/PI staining based flow cytometric analysis; format: functional
[12] = test system: SAOS-2; test: Effect on conformation of p53 […] mutant in human SAOS-2 cells at 100 uM incubated for 6 hrs by Hoechst 33342 staining based immunofluorescence analysis; format: functional, cell-based

## CC(C)=C[C@@H](O)[C@]12O[C@H]1C(=O)C1=C(C2=O)C2[C@@H]3[C@@H](C)OC=C4C(=O)[C@@H]5O[C@]5([C@H](O)C=C(C)C)C(=O)[C@]43C1O[C@@H]2C (some centres not stated)
[1]
  IC50: 1000 nM
[2]
  viability at 4 µM: 80%
[3]
  Activity: 140 mm3
[4]
  Activity: Active
[5]
  Activity: 5.7%
[6]
  Activity: 13.6%
[7]
  Activity: 0.7%
[8]
  fold change (FC): 3.3
[9]
  Activity: Active
[10]
  Activity: Non-toxic
[11]
  fold change (FC): 4.8

## CC(C)=C[C@@H](O)[C@]12O[C@H]1C(=O)C1=C(C2=O)C2[C@H](C)OC1[C@]13C(=O)[C@@]4([C@H](O)C=C(C)C)O[C@H]4C(=O)C1=CO[C@@H](C)[C@H]23 (some centres not stated)
[1]
  IC50: 1100 nM
[4]
  Activity: Active

## CC(C)=C[C@@H](O)[C@]12O[C@H]1[C@H](O)C1=C(C2=O)C2C(C)OC1[C@]13C(=O)[C@@]4([C@H](O)C=C(C)C)O[C@H]4[C@H](O)C1=CO[C@@H](C)[C@H]23 (some centres not stated)
[1]
  IC50: > 20000 nM

## C/C=C/C1=C(CO)[C@@H](O)[C@@H]2O[C@]2([C@H](O)C=C(C)C)C1=O
[1]
  IC50: > 20000 nM
[12]
  Activity: inactive

## C/C=C/C1=C(CO)C(=O)[C@@H]2O[C@]2([C@H](O)C=C(C)C)C1=O
[1]
  IC50: 920 nM
